Values of other authors, collected in patent publication US20120178771A1, “Oral Pharmaceutical Compositions of Buprenorphine and Method of Use” (priority 2008, published 2012).

What was measured:
[1] = orally administered, versus placebo; pain assessed 0.5 to 6 hours
[2] = human, in vivo

| Compound | analgesia over the 6 hours, differences between the groups [1] | dose range required to control pain in about 90% of subjects [2] [fold] |
| --- | --- | --- |
| CC(=O)Nc1ccc(O)cc1 [acetaminophen (paracetamol), acetaminophen] | no significant differences between the groups in analgesia | – |
| CN1CC[C@]23c4c5ccc(O)c4O[C@H]2[C@@H](O)C=C[C@H]3[C@H]1C5 [morphine] | – | 8 |
| COc1ccc2c3c1O[C@H]1C(=O)CC[C@@]4(O)[C@@H](C2)N(C)CC[C@]314 [oxycodone] | – | 4 |
